Earlier results on 1 compound are cited in patent US20060079522A1, “Amino substituted aryloxybenzylpiperidine derivatives” (priority 2004, published 2006).

Read-outs that look alike come from different tables or passages of the source.

Data set [1] has as its system MCH1 receptor. The settings on record: guinea pig maternal-separation vocalization.
Data set [2] addresses T1, MCH1 receptor (Rattus norvegicus, UniProt P97639).
T1 construct: SNAP-7941, a selective MCH1 small molecule antagonist, was evaluated in several animal models; host or cells: living rats (endogenous receptor)
The settings on record: rat forced-swim.

Data set [3] addresses T1, MCH1 receptor. The settings on record: rat social interaction.

T1 sequence (P97639 whole entry): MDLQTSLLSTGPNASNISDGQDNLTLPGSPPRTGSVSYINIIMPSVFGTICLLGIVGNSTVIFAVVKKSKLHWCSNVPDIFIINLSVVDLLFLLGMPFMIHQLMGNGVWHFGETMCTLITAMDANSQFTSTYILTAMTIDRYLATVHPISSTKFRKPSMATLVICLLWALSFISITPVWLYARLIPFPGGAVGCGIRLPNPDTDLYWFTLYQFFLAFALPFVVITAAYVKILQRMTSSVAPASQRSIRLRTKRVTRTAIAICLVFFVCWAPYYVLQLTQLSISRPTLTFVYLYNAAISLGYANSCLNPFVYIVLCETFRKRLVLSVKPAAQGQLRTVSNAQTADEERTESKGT

Consider `COCC1=C(C(=O)OC)[C@H](c2ccc(F)c(F)c2)N(C(=O)NCCCN2CCC(c3cccc(NC(C)=O)c3)CC2)C(=O)N1` [SNAP-7941], for which the “profile in behavioral model of depression and/or anxiety” value in the data set with MCH1 receptor [1] is “profile similar to clinically used anti-depressants and anxiolytics”; at MCH1 receptor [2], “profile similar to clinically used anti-depressants and anxiolytics”; on MCH1 receptor [3], “profile similar to clinically used anti-depressants and anxiolytics”.
